Reference: article PMC8580996, “2-Oxoglutarate derivatives can selectively enhance or inhibit the activity of human oxygenases” (Nature Communications, 2021)
“And” between values parts separate entries of the source, which are not always exact repeats. Equal values may be shown once.

Assays:
Format in all cases: biochemical
[1] = target: T1, FIH (Homo sapiens, UniProt Q9NWT6); assay: 1H NMR assay of FIH-catalyzed oxidative decarboxylation of cosubstrate, with SPE-MS of final mixture; details: 5 μM FIH, 150 μM CA1-20, 150 μM cosubstrate
Procedure: Supplementary Figure 2. […] FIH- […]
catalyzed oxidative decarboxylation of 2OG was monitored using a Bruker AVIII 700 NMR machine equipped with a 5 mm 1H(13C/15N) inverse cryoprobe; spectra were analyzed using the Bruker TopSpin 3.6.1 software.
50 μM ammonium iron(II) sulfate hexahydrate (FAS, (NH4)2Fe(SO4)2·6H2O) in 50 mM aqueous Tris-d11 containing 10% v/v D2O (pH 7.5, 25° C). The ratio of the CA 1-20 peptide and the hydroxylated CA 1-20(Ox) peptide, which is the product of the F IH-catalyzed hydroxylation reaction, was determined using SPE-MS after NMR […]
(a) Close-up (3.0-2.2 ppm) of the 1H NMR spectrum of commercial 2OG in 50 mM aqueous Tris-d11 containing 10%v/v D2O (pH 7.5, 25° C); (b) Close-up (3.0-2.2 ppm) of the 1H NMR spectrum of commercial succinate in 50 […]
FIH-catalyzed oxidative decarboxylation of 3-methyl-2OG (1) was monitored using a Bruker AVIII 700 NMR machine equipped with a 5 mm 1H(13C/15N) inverse cryoprobe; spectra were analyzed using the […]
Bruker TopSpin 3.6.1 software. […]
in 50 mM aqueous Tris -d11 containing 10% v/v D2O (pH 7.5, 25° C). The ratio of the CA 1-20 peptide and the hydroxylated CA 1-20(Ox) peptide, which is the product of the FIH -catalyzed hydroxylation reaction, was […]
(a) Close -up (3.4 -0.9 ppm) of the 1H NMR spectrum of synthetic 1 in 50 mM aqueous Tris-d11 containing 10% v/v D2O (pH 7.5, 2 5° C); ( b) Close -up (3.4 -0.9 ppm) of the 1H NMR spectrum of commercial 2 -methylsuccinate ( 36) […]
FIH-catalyzed oxidative decarboxylation of 4-methyl-2OG (12) was monitored using a Bruker AVIII 700 NMR machine equipped with a 5 mm 1H(13C/15N) inverse cryoprobe; spectra were analyzed using the Bruker TopSpin 3.6.1 software.
(NH4)2Fe(SO4)2·6H2O) in 50 mM aqueous Tris-d11 containing 10% v/v D2O (pH 7.5, 25° C). The ratio of the CA 1-20 peptide and the hydroxylated CA 1-20(Ox) peptide, which is the product of the FI H-catalyzed hydroxylation […]
(a) Close -up (3.3 -0.9 ppm) of the 1H NMR spectrum of synthetic 12 in 50 mM aqueous Tris-d11 containing 10% v/v D2O (pH 7.5, 25° C); ( b) Close -up (3.4 -0.9 ppm) of the 1H NMR spectrum of commercial 2 -methylsuccinate ( 36)

[2] = target: T1, FIH; assay: Competition assay in a single reaction vessel, FIH-catalyzed hydroxylation (SPE-MS); details: Fig 2c; for substrate hydroxylation (% conversion): 20 μM 1, FIH
Procedure: Mean of three independent runs (n = 3; mean ± SD). […] Cosubstrates: a 20 μM 2OG; b 20 μM 2OG; c 20 μM 1; d 20 μM 12; e 20 μM 12 and 100 μM 2OG; f 100 μM 14. Source data are provided as a Source Data file.
Mean of three independent runs (n = 3; mean ± SD). […] Source data are provided as a Source Data file.
Peptide turnover was monitored by SPE-MS using the same instrument configuration (with the exception that the peptides were eluted from the SPE cartridge with 0.1%v/v aqueous formic acid in 80/20 v/v acetonitrile/water) as described above.
FIH and AspH-catalyzed peptide hydroxylations were analyzed simultaneously using SPE-MS as described in the
Methods section; competition experiments were performed in the same reaction vessel using equimolar 2OG
oxygenase and substrate concentrations. […]
Source data are provided as a Source Data file.
FIH and AspH-catalyzed peptide hydroxylations were analyzed simultaneously using SPE-
MS as described in the Methods section; competition experiments were performed in the same reaction vessel
using equimolar 2OG oxygenase and substrate concentrations. […]
2OG, 100 μM 14. Source data are provided as a Source Data file.

[3] = target: T1, FIH; assay: SPE-MS FIH turnover (cosubstrate) assay in the absence of 2OG; details: 330 μM 2OG or 2OG derivative, no 2OG, t = 15 min
Procedure: The ability of 35 synthetic C3/C4-substituted 2OG derivatives, which were prepared via a reported procedure (Supplementary Fig. 1 and Supplementary Methods)[21], to sustain catalysis by purified recombinant FIH in the absence of 2OG was examined using an assay directly monitoring substrate depletion and product formation (i.e., a +16 Da mass shift) by solid-phase extraction (SPE) coupled to mass spectrometry (SPE-MS)[44],[45]. […] (i.e. CA1–20)[47], were used as FIH substrates to test for potential substrate-dependent differences in terms of cosubstrate analog selectivity.
Assay samples were aspirated under vacuum for 0.6 s and loaded onto a C4 SPE cartridge. After loading, the C4 SPE cartridge was washed with 0.1%v/v aqueous formic acid to remove non-volatile buffer salts (5.5 s, 1.5 mL/min). […] The mass spectrometer was operated using the MassHunter Workstation B.08.00 software (Agilent), the mass spectrometer parameters were: capillary voltage (4000 V), nozzle voltage (1000 V), fragmentor voltage (365 V), gas temperature (280 °C), gas flow (13 L/min), sheath gas temperature (350 °C), sheath gas flow (12 L/min). […] Data were exported into Microsoft Excel and used to calculate the % conversion of the hydroxylation reaction using the equation: % conversion = 100 × (integral product peptide)/(integral substrate peptide+integral product peptide). […] Z′-factors were calculated according to the cited literature using Microsoft Excel (Supplementary Fig. 26)[83].

T1 sequence (Q9NWT6 whole entry): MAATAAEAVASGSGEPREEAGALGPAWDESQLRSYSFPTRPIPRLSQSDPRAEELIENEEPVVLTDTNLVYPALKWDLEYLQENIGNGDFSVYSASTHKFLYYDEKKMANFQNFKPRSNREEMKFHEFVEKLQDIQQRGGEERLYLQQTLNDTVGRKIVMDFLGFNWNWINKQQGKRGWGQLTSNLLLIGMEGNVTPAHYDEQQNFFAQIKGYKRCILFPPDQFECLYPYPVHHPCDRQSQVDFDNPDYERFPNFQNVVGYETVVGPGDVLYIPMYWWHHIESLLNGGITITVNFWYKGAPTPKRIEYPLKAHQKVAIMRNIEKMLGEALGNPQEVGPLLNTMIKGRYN

CC(CC(=O)O)C(=O)C(=O)O (stereo not drawn) [compound 1, 3-methyl-2OG]
hydroxylation of CA1-20 peptide in final reaction mixture (SPE-MS) ([1]; t = 10 min): > 90% | FIH-catalyzed conversion of cosubstrate to succinate / 2-methylsuccinate (1H NMR) ([1]; within 5 min): ~ 70% | substrate hydroxylation (% conversion) ([2]; 0 min): 3.506 and 4.816 and 5.633 | substrate hydroxylation (% conversion) ([2]; 0.700167 min): 19.4856 and 18.7444 and 19.2793 | substrate hydroxylation (% conversion) ([2]; 1.39933 min): 32.3038 and 30.8139 and 30.8824 | substrate hydroxylation (% conversion) ([2]; 2.10017 min): 43.2797 and 40.6551 and 40.5787 | substrate hydroxylation (% conversion) ([2]; 2.79917 min): 51.3082 and 49.0078 and 49.2389 | substrate hydroxylation (% conversion) ([2]; 3.5005 min): 58.9995 and 56.3411 and 56.671 | substrate hydroxylation (% conversion) ([2]; 4.20083 min): 64.1723 and 62.5798 and 63.2033 | substrate hydroxylation (% conversion) ([2]; 4.9 min): 69.5252 and 67.0447 and 68.2025 | substrate hydroxylation (% conversion) ([2]; 5.60117 min): 73.4042 and 71.6094 and 72.347 | substrate hydroxylation (% conversion) ([2]; 6.29967 min): 77.1725 and 74.6235 and 74.9327 | substrate hydroxylation (% conversion) ([2]; 7.00033 min): 79.731 and 76.5169 and 77.4955 | substrate hydroxylation (% conversion) ([2]; 7.7025 min): 81.4904 and 79.3791 and 79.9762 | substrate hydroxylation (% conversion) ([2]; 8.40233 min): 83.8334 and 81.9815 and 82.8865 | substrate hydroxylation (% conversion) ([2]; 9.10283 min): 86.0072 and 84.3134 and 84.9864 | substrate hydroxylation (% conversion) ([2]; 9.806 min): 87.2729 and 86.3042 and 86.5893 | substrate hydroxylation (% conversion) ([2]; 11.207 min): 89.9552 and 84.6882 and 85.7483 | FIH-catalyzed CA1–20 hydroxylation ([2]; 20 μM 1, after about 8 min): > 80% | FIH activity, %-substrate conversion ([3]; CA1–20 substrate): > 90% | FIH activity, %-substrate conversion ([3]; HIF-1α788–822 substrate): ~55%

O=C(O)C(=O)CC(CCCc1ccccc1)C(=O)O (stereo not drawn) [compound 18, 4-(3-phenylpropyl)-2OG]
FIH activity, %-substrate conversion ([3]; CA1–20 substrate): ^c<1% ^d<1% | FIH activity, %-substrate conversion ([3]; HIF-1α788–822 substrate): ^c<1% ^d<1%

CCC(CC(=O)C(=O)O)C(=O)O (stereo not drawn) [compound 14, 4-ethyl-2OG]
FIH activity, %-substrate conversion ([3]; CA1–20 substrate): ~75% | FIH activity, %-substrate conversion ([3]; HIF-1α788–822 substrate): ~10%

O=C(O)C(=O)C1CCC(C(=O)O)C1 (stereo not drawn) [compound 22, 3-(carboxycarbonyl)cyclopentane-1-carboxylic acid]
FIH activity, %-substrate conversion ([3]; CA1–20 substrate): ~5% | FIH activity, %-substrate conversion ([3]; HIF-1α788–822 substrate): ~2%
